In paper PMC6669322, “Small Molecule Binding to Alzheimer Risk Factor CD33 Promotes Aβ Phagocytosis” (iScience, 2019):
“And” between values parts separate entries of the source, which are not always exact repeats. Equal entries are not always repeated.

Target: T1, CD33^C36S (Homo sapiens, UniProt P20138, C36S)
T1 construct: DNA encoding D18 to H143 of human CD33; octa-histidine tag with TEV protease cleavage site (N); made in house
Experiment: surface plasmon resonance (SPR), CD33^C36S V-set domain
Format: binding
Details: P22 as analyte, captured CD33^C36S; 1:1 steady state model
Method: We next performed surface plasmon resonance (SPR) measurements on P22 binding to CD33 wild-type, and selected mutants, to obtain detailed kinetic data (see Transparent Methods). The CD33 V-set domain has a free cysteine residue (C36), which caused anomalous results in some of our SPR experiments due to disulfide-linked oligomers forming in solution.
Figure 3 P22 Binding to CD33 Wild-Type and Mutants (A) An example of affinity analysis for 1–243 μM (3-fold dilutions) of P22 binding to immobilized CD33^C36S. Data obtained in duplicate using single-cycle analysis and fit to a steady-state binding model to determine the equilibrium binding constant. (B) An example of affinity analysis of P22 binding to immobilized CD33 wild-type (WT) as per example in (A). (C) Sensorgram data for 0.01–9 μM (3-fold dilutions) of CD33^C36S binding to immobilized P22. Data obtained in triplicate using single concentration cycles and fit to a 1:1 binding model for kinetic analysis. (D) Sensorgram data for 0.03–9 μM (3-fold dilutions) CD33 WT binding to immobilized P22. Data obtained in triplicate using single concentration cycles and fit to a bivalent analyte model for kinetic analysis. Measurements in triplicate showing mean ± SD. […] Data presented are representative of three independent experiments performed in quadruplicate for each compound. […]

T1 sequence (P20138 18-143 C36S): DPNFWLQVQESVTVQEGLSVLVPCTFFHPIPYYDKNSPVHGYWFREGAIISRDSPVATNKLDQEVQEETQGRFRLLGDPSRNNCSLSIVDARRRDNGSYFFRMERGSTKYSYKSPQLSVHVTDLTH

Cc1cc(C(=O)NC[C@@H](O)[C@@H](O)[C@@H]2O[C@@](OC[C@H]3O[C@@H](O[C@H]4[C@H](O)[C@@H](O)[C@H](OCCN)O[C@@H]4CO)[C@H](O)[C@@H](O)[C@H]3O)(C(=O)O)C[C@H](O)[C@H]2NC(=O)Cn2cc(C3CCCCC3)nn2)cc(C)c1O [P22, β-D-Glucopyranoside, 2-aminoethyl O-[N-[2-(4-cyclohexyl-1H-1,2,3-triazol-1-yl)acetyl]-9-deoxy-9-[(4-hydroxy-3,5-dimethylbenzoyl)amino]-α-neuraminosyl] (2→6)-O-β-D-galactopyranosyl-(1→4)-]
Kd: 95 µM and 95.2 µM
